Test results taken from ChEMBL document CHEMBL1201862, “PubChem BioAssay data set” (2004).
Activity calls are given as the source filed them.

Experiments:
[1] = general cell-killing toxicity readout – plate reader, dry powder samples, cytotoxicity control for PAX8 inhibitor project, dose response (AID 743021); type: functional, cell-based
[2] = molecular target: T1, Heat shock factor protein 1 (Mus musculus, UniProt P38532); assay: enhancement of HSF1-driven luciferase signal – cell-based, NIH3T3, luminescence, dose retest, confirmation (AID 435004); type: functional;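 further: stress induced by proteasome inhibitor MG132 added 30 min after compound; luciferase reporter driven by HSF1 response element in NIH3T3 cells; actives raise luminescence as potentiators of the MG132 stress response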
T1 sequence (P38532 whole entry): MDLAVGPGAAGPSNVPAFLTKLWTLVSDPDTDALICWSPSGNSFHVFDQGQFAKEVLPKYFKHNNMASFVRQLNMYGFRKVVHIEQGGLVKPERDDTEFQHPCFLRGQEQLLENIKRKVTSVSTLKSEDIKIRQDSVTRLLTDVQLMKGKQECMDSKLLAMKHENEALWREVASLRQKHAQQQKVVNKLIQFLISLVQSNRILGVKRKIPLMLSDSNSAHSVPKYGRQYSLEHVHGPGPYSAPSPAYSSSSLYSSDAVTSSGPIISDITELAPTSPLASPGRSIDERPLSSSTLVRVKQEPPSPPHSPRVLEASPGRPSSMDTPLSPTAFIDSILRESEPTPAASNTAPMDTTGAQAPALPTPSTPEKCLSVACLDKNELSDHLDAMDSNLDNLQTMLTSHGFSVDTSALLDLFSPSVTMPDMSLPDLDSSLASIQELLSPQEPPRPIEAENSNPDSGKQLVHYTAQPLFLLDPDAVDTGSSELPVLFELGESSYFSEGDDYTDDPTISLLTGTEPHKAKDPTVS

[3] = HepG2 cell cytotoxicity, dose response, cytotoxicity control for non-replicating M. tuberculosis project (AID 489018); type: functional; conditions: Mycobacterium tuberculosis
[4] = Luminescent dose response cell-based high throughput screening assay for inhibitors of the Janus kinase 2 mutant JAK2V617F. [Related pubchem assays: 1446 (Primary screen.), 1521 (Confirmation assay.), 1486 (Counter screen.)]; type: functional
[5] = molecular target: T2, Replicative DNA helicase DnaB (Mycobacterium tuberculosis, UniProt P9WMR3); assay: DnaB intein splicing inhibitors, dose response, biochemical, cell-free fluorescence (AID 449749); type: functional
T2 sequence (P9WMR3 whole entry): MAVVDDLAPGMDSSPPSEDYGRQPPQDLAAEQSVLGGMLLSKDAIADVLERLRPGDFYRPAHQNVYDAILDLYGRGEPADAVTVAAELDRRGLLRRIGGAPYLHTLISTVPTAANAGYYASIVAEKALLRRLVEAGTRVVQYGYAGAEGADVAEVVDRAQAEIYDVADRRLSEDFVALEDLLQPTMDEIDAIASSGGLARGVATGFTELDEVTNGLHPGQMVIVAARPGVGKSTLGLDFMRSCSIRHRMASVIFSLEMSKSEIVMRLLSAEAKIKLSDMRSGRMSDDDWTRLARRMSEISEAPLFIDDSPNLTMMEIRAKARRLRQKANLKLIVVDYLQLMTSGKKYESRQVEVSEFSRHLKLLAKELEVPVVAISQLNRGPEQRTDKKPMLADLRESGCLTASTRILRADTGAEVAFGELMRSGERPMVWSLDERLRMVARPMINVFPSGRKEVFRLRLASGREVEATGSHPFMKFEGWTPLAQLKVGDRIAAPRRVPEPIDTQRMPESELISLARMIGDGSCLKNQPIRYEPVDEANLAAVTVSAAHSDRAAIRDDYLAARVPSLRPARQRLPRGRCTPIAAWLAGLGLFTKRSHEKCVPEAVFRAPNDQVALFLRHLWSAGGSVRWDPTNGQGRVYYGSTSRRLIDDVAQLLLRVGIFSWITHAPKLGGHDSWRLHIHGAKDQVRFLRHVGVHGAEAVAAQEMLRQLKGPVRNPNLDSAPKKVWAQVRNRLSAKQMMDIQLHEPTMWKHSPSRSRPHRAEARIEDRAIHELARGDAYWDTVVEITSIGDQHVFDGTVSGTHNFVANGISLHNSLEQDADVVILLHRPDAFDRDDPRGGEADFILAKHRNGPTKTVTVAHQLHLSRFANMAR

[6] = Vero E6 cell cytotoxicity, dose response, cytotoxicity control for non-replicating M. tuberculosis project, secondary assay (AID 492998); type: functional, VeroE6; conditions: Vero C1008
Protein RecA = molecular target: T3, Protein RecA (Mycobacterium tuberculosis, UniProt P9WHJ3); assay: Fluorescence Cell-Free Homogeneous Dose Retest to Identify Inhibitors of RecA-Intein Splicing Activity. [Related pubchem assays (depositor defined):AID2097, AID2223, AID489010, AID492950]; type: functional
T3 sequence (P9WHJ3 whole entry): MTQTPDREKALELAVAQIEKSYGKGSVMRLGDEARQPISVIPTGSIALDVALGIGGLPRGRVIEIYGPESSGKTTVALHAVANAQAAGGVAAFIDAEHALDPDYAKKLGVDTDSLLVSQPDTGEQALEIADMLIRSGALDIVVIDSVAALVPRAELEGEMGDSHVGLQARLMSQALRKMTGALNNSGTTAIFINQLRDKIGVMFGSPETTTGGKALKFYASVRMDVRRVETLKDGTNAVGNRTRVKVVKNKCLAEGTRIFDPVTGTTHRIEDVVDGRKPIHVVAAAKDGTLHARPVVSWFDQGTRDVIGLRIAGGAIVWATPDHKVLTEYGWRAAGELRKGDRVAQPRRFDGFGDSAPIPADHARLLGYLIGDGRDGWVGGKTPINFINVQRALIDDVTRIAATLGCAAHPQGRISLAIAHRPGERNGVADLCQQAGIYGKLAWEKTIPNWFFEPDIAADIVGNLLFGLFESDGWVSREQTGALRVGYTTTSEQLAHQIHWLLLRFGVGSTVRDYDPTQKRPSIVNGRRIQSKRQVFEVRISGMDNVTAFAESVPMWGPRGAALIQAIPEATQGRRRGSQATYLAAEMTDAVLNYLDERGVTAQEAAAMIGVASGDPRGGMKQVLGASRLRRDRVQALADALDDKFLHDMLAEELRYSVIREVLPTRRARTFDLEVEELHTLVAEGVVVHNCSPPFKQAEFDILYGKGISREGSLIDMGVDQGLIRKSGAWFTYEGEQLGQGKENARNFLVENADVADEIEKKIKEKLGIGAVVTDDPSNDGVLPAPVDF

[7] = THP-1 cell cytotoxicity, dose response, cytotoxicity control for non-replicating M. tuberculosis project (AID 489025); type: functional
[8] = Fluorescence-based cell-based high throughput dose response assay for inhibitors of the interaction of nucleotide-binding oligomerization domain containing 2 (NOD2) and the receptor-interacting serine-threonine kinase 2 (RIPK2).; type: functional; conditions: Homo sapiens
cells [9] = type: functional
Paired box protein Pax-8 = Paired box protein Pax-8 (Homo sapiens, UniProt Q06710); assay: PAX8 transcriptional activity inhibition in RMG-I – RMG-I cells, luciferase, cherry-pick, dose response (AID 687027); type: functional, cell-based;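 further: luciferase reporter driven by Pax8 target thyroperoxidase promoter measured by SteadyGlo luminescence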
Chain of Paired box protein Pax-8 (Q06710 whole entry): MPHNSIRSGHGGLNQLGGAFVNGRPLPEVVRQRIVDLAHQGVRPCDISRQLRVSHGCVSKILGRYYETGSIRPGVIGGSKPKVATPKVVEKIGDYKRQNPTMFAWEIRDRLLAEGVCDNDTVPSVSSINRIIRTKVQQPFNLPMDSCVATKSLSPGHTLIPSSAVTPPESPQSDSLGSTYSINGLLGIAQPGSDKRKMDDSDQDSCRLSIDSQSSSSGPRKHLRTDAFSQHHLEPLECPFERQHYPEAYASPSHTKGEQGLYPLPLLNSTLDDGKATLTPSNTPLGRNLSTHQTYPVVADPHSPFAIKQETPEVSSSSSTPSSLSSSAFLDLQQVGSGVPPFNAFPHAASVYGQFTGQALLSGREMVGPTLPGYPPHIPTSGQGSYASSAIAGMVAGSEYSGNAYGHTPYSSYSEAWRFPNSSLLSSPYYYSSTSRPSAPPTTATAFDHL

Danio rerio = assay: In Vivo Angiogenesis Dose-Response Confirmation. [Related pubchem assays: 732 (Assay preceding this confirmatory assay.)]; type: functional, organism-based
SUMO-activating enzyme [10] = molecular target: T4, SUMO-activating enzyme (Homo sapiens, UniProt Q9UBT2); assay: blockers of UBC9-mediated SUMO conjugation – biochemical, AlphaScreen, SUMOylation inhibitor project, confirmation (AID 2018); type: functional
T4 sequence (Q9UBE0 whole entry): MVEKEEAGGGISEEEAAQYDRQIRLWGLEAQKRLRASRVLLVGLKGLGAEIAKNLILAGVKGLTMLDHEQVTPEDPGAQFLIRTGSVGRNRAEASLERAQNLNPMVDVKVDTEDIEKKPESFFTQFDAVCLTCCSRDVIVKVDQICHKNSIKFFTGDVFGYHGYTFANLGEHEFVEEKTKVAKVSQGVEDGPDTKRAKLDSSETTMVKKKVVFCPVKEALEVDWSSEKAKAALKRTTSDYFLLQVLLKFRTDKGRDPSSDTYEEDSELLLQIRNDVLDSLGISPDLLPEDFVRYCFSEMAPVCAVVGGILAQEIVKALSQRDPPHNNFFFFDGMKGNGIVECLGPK
T4 sequence (Q9UBT2 whole entry): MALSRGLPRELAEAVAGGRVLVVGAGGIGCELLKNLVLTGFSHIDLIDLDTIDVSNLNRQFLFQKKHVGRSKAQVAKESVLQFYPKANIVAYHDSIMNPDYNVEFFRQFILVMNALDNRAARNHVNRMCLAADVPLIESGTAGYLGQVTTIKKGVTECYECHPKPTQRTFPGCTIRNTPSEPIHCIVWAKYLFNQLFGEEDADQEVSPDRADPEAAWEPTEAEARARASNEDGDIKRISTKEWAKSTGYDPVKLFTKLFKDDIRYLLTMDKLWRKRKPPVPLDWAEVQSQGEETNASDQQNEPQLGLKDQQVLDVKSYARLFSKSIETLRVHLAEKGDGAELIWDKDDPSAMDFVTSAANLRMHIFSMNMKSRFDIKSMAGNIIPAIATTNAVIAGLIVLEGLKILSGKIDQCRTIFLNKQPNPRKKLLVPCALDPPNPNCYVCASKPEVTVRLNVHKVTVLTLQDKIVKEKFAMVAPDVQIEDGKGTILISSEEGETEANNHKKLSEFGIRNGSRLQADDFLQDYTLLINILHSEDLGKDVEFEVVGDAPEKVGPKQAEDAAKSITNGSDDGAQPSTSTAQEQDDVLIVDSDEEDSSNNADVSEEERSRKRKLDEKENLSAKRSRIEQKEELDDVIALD

SUMO-activating enzyme [11] = molecular target: T4, SUMO-activating enzyme; assay: blockers of SAE1/SAE2–UBC9 SUMO transfer – biochemical, HTRF, uHTS, primary screen (AID 2006); type: protein-complex assay
Genome polyprotein [12] = molecular target: Genome polyprotein (Hepatitis C virus, UniProt Q2Q167); assay: disruption of hepatitis C core self-association – biochemical, TR-FRET, dose response (AID 2159); set-up: species or system Hepacivirus hominis;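 further: blocks dimerization of HCV core protein measured by TR-FRET between tagged core106 pairs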
Chain of Genome polyprotein (Hepatitis C virus, UniProt Q2Q167) (Q2Q167 whole entry): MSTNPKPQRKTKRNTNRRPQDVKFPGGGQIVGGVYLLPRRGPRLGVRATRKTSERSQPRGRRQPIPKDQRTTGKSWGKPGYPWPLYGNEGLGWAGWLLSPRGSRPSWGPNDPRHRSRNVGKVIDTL

Genome polyprotein [13] = molecular target: Genome polyprotein (dengue virus type 2, UniProt P29990); assay: flavivirus cap methylation enzyme inhibition – biochemical, confirmation dose response, primary screen (AID 588689); type: functional
Chain of Genome polyprotein (dengue virus type 2, UniProt P29990) (P29990 2492-3391 limits assumed): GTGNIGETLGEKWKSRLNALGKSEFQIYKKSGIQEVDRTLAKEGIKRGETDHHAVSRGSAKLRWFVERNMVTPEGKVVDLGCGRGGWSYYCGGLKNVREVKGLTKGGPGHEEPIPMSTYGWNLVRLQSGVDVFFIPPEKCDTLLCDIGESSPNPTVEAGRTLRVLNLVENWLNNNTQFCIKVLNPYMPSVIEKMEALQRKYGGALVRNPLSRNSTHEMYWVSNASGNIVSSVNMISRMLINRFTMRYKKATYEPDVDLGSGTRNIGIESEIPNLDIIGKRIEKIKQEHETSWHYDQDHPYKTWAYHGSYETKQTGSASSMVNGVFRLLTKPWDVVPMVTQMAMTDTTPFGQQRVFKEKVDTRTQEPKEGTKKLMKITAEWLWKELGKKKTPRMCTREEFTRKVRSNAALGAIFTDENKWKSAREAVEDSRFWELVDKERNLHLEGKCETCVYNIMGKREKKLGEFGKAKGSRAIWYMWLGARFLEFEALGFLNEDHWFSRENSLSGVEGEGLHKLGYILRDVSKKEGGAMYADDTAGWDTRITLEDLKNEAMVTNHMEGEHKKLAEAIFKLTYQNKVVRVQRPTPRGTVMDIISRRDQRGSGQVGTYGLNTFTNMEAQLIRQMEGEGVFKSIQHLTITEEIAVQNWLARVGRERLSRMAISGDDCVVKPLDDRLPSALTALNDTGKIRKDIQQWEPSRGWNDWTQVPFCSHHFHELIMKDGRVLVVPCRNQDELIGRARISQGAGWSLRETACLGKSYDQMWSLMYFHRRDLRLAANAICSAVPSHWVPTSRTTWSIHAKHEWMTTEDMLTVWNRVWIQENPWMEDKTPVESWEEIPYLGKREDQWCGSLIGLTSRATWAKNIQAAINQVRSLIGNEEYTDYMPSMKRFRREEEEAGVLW

[14] = molecular target: Mitogen-activated protein kinase 10 (Homo sapiens, UniProt P53779); assay: Dose response biochemical screening assay for inhibitors of c-Jun N-Terminal Kinase 3 (JNK3). [Related pubchem assays: 746 ]
Chain of Mitogen-activated protein kinase 10 (P53779 whole entry): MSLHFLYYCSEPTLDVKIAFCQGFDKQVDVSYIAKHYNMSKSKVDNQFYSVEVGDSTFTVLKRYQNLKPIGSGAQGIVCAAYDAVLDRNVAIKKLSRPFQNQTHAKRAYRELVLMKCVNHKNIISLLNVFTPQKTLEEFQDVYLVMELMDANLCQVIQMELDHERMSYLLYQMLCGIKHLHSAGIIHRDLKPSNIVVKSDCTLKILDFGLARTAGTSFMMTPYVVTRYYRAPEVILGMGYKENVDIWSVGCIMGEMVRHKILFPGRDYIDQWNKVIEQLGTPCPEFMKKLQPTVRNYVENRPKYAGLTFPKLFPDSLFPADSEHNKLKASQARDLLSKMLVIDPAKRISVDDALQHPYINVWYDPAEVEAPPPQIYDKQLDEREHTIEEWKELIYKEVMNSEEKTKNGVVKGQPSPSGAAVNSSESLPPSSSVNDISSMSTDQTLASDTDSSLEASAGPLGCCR

[15] = loss of viability in HepG2 cells – cell-based, CellTiter-Glo, cherry-picked, cytotoxicity control for Shn3 inhibitor project, dose response (AID 624134); type: functional
[16] = molecular target: Sphingosine 1-phosphate receptor 2 (Homo sapiens, UniProt O95136); assay: Dose Response Cell Based Assay for Antagonists of the S1P2 Receptor. [Related pubchem assays: 856, 736 ]; type: functional
Chain of Sphingosine 1-phosphate receptor 2 (O95136 whole entry): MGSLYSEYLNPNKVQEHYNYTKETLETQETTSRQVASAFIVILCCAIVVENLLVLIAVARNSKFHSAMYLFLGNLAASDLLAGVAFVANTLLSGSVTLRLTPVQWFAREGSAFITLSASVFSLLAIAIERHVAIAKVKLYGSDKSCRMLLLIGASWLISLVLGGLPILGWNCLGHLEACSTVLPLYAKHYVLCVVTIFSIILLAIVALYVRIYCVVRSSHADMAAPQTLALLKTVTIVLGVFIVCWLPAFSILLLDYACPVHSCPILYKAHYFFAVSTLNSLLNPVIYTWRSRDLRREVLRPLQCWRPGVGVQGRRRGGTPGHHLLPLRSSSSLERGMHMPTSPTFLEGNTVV

[17] = HPDE-C7 pancreatic duct cell viability loss – fluorescence, HTS (AID 430); type: functional, cell-based; conditions: Homo sapiens
[18] = viability loss of HPDE-C7K cells – cell-based, fluorescence, HTS, primary screen (AID 431); type: functional; conditions: Homo sapiens
HEK293 = assay: EBV LMP1 TES2 canonical NF-kB signalling blockers – cell-based, HEK293, luciferase, cherry-pick, dose response (AID 588343); type: functional; conditions: Homo sapiens
Streptococcus = assay: GAS UMAA2166 growth inhibition – luminescence, BacTiterGlo, counter-screen for streptokinase expression inhibitor project, dose response (AID 1915); type: functional, organism-based;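 further: potency for reduction of bacterial viability or growth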
[19] = non-specific 3'UTR reporter inhibition in Clone20-Shn3RL – cell-based, Renilla luciferase, cherry-picked, counter-screen for Shn3 inhibitor project, dose response (AID 624133); type: functional
cells [20] = type: functional, cell-based; conditions: HEK-CNG
[21] = reduction of Shn3 3'UTR-driven luciferase in osteoblasts – cell-based, Clone20 osteoblasts, firefly luciferase, cherry-picked, dose response (AID 624132); type: functional;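 further: firefly luciferase luminescence from reporter carrying the Shn3 3'UTR in osteoblasts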
Galanin receptor type 3 = Galanin receptor type 3 (Homo sapiens, UniProt O60755); assay: Fluorescence-based cell-based primary high throughput dose response assay to identify antagonists of the Galanin Receptor 3 (GalR3).; type: functional
Chain of Galanin receptor type 3 (O60755 whole entry): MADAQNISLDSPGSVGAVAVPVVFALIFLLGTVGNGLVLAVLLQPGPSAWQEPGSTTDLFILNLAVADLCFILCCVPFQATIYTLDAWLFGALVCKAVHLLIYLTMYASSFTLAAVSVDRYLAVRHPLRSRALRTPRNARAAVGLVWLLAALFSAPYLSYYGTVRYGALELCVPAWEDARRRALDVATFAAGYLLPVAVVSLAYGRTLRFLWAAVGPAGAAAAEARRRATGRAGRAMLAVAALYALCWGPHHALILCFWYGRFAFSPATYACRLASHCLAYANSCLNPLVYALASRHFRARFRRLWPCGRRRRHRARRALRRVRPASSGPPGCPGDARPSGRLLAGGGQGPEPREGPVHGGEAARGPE

[22] = test system: Streptococcus sp. 'group A'; assay: Streptococcus pyogenes SK(-)GAS viability under kanamycin – luminescence, BacTiterGlo, confirmation, counter-screen for streptokinase expression inhibitor project, dose response (AID 1900); type: functional, organism-based

## Cc1nc2c(=O)n(C)c(=O)n(C)c2nc1Cl
[1]
  AC50: 32.9 µM (active)
[2]
  EC50: 14.3 µM (active)
[3]
  CC50: 10.6 µM (active)
[4]
  IC50: 1.37 µM (active)
[5]
  AC50: 17.3 µM (active)
[6]
  CC50: 7.41 µM (active)
Protein RecA
  EC50: 8.48 µM (active)
[7]
  CC50: 12.1 µM (active)
[8]
  IC50: 4.73 µM (active)
Cells [9]
  IC50: 6.22 µM (active)
Paired box protein Pax-8
  AC50: 8.88 µM (active)

## O=C1Nc2ccc(F)cc2/C1=C1/Nc2ccc(Br)cc2C1=O
Danio rerio
  IC50: 0.35 µM (not active)

## COc1cc(/C=C2\C(=O)N(c3ccccc3)N=C2C)ccc1Oc1ccc([N+](=O)[O-])cc1[N+](=O)[O-]
SUMO-activating enzyme [10]
  IC50: 5.91 µM (active)
SUMO-activating enzyme [11]
  IC50: 24.5 µM (active)
Genome polyprotein [12]
  IC50: > 49.8 µM (not active)
Genome polyprotein [13]
  IC50: 58 µM (active)

## COc1cc(CC(=O)Nc2sccc2C(N)=O)cc(OC)c1OC
[14]
  IC50: 5.94 µM (active)

## CCC(NC(=O)Nc1nnc(C(F)(F)F)s1)(C(F)(F)F)C(F)(F)F
[15]
  AC50: 6.87 µM (active)
[16]
  IC50: 4.77 µM (active)
[17]
  EC50: 2.79 µM (active)
[18]
  EC50: 3.15 µM (active)
HEK293
  AC50: 7.24 µM (active)
Streptococcus
  EC50: 3.27 µM (active)
[19]
  AC50: 4.23 µM (active)
Cells [20]
  EC50: > 29.9 µM (inactive)
[21]
  AC50: 4.15 µM (active)
Galanin receptor type 3
  IC50: > 3.32 µM (active)
[22]
  EC50: 1.4 µM (active)
